Test results as given in patent publication US20250255883A1, “Compositions and Methods for Treating Aging Hair” (CHL Industries, LLC, priority 2021, published 2025).

Tested on: Normal human keratinocytes (HEKa)
Test: Real-time quantitative PCR gene expression in normal human keratinocytes treated for 24 hours
Assay type: cell-based

C=CC1=C(C)C2=CC3=NC(=C(CC(=O)[O-])C4=NC(=C(C)C4=C([O-])[O-])C=c4[n-]c(c(C)c4CC)=CC1=N2)[C@@H](CCC(=O)[O-])[C@@H]3C.[Cu+2].[Na+].[Na+].[Na+] [TCCE6, trisodium copper (II) chlorin e6]
Fold Up- or Down-Regulation 18S (gene 18S (housekeeping), 20 ug/mL, vs. water-treated control): 1.1 Fold
Fold Up- or Down-Regulation AQP3 (gene AQP3, 20 ug/mL, vs. water-treated control): 1.7 Fold
Fold Up- or Down-Regulation AREL1 (gene AREL1, 20 ug/mL, vs. water-treated control): −1.0 Fold
Fold Up- or Down-Regulation ARRDC3 (gene ARRDC3, 20 ug/mL, vs. water-treated control): 6.1 Fold
Fold Up- or Down-Regulation BAMBI (gene BAMBI, 20 ug/mL, vs. water-treated control): 6.2 Fold
Fold Up- or Down-Regulation CCL20 (gene CCL20, 20 ug/mL, vs. water-treated control): 1.3 Fold
Fold Up- or Down-Regulation CDKN1A (gene CDKN1A, 20 ug/mL, vs. water-treated control): 1.5 Fold
Fold Up- or Down-Regulation CSF1 (gene CSF1, 20 ug/mL, vs. water-treated control): −1.3 Fold
Fold Up- or Down-Regulation CSF2 (gene CSF2, 20 ug/mL, vs. water-treated control): −1.2 Fold
Fold Up- or Down-Regulation CXCL1 (gene CXCL1, 20 ug/mL, vs. water-treated control): 1.6 Fold
Fold Up- or Down-Regulation CXCL2 (gene CXCL2, 20 ug/mL, vs. water-treated control): 1.2 Fold
Fold Up- or Down-Regulation CXCL3 (gene CXCL3, 20 ug/mL, vs. water-treated control): 1.7 Fold
Fold Up- or Down-Regulation CXCL8 (gene CXCL8, 20 ug/mL, vs. water-treated control): 1.1 Fold
Fold Up- or Down-Regulation CXCL10 (gene CXCL10, 20 ug/mL, vs. water-treated control): 2.0 Fold
Fold Up- or Down-Regulation CYB561 (gene CYB561, 20 ug/mL, vs. water-treated control): −1.1 Fold
Fold Up- or Down-Regulation CYP1A1 (gene CYP1A1, 20 ug/mL, vs. water-treated control): −1.8 Fold
Fold Up- or Down-Regulation DDX5 (gene DDX5, 20 ug/mL, vs. water-treated control): 1.0 Fold
Fold Up- or Down-Regulation DEFB1 (gene DEFB1, 20 ug/mL, vs. water-treated control): 2.2 Fold
Fold Up- or Down-Regulation EPGN (gene EPGN, 20 ug/mL, vs. water-treated control): 2.3 Fold
Fold Up- or Down-Regulation FGF2 (gene FGF2, 20 ug/mL, vs. water-treated control): −1.2 Fold
Fold Up- or Down-Regulation FOS (gene FOS, 20 ug/mL, vs. water-treated control): 3.7 Fold
Fold Up- or Down-Regulation G2E3 (gene G2E3, 20 ug/mL, vs. water-treated control): −1.2 Fold
Fold Up- or Down-Regulation GDF15 (gene GDF15, 20 ug/mL, vs. water-treated control): 1.9 Fold
Fold Up- or Down-Regulation GPADH (gene GPADH (housekeeping), 20 ug/mL, vs. water-treated control): −1.2 Fold
Fold Up- or Down-Regulation GPX2 (gene GPX2, 20 ug/mL, vs. water-treated control): −1.1 Fold
Fold Up- or Down-Regulation HBEGF (gene HBEGF, 20 ug/mL, vs. water-treated control): 2.5 Fold
Fold Up- or Down-Regulation HECTD1 (gene HECTD1, 20 ug/mL, vs. water-treated control): −1.0 Fold
Fold Up- or Down-Regulation HERC1 (gene HERC1, 20 ug/mL, vs. water-treated control): 1.1 Fold
Fold Up- or Down-Regulation HIF1AN (gene HIF1AN, 20 ug/mL, vs. water-treated control): −1.3 Fold
Fold Up- or Down-Regulation HPRT1 (gene HPRT1 (housekeeping), 20 ug/mL, vs. water-treated control): 1.0 Fold
Fold Up- or Down-Regulation HSP90B1 (gene HSP90B1, 20 ug/mL, vs. water-treated control): 1.4 Fold
Fold Up- or Down-Regulation IFI44L (gene IFI44L, 20 ug/mL, vs. water-treated control): −2.5 Fold
Fold Up- or Down-Regulation JUN (gene JUN, 20 ug/mL, vs. water-treated control): 1.2 Fold
Fold Up- or Down-Regulation JUNB (gene JUNB, 20 ug/mL, vs. water-treated control): 1.9 Fold
Fold Up- or Down-Regulation LTB4R (gene LTB4R, 20 ug/mL, vs. water-treated control): 1.1 Fold
Fold Up- or Down-Regulation MAFF (gene MAFF, 20 ug/mL, vs. water-treated control): 2.2 Fold
Fold Up- or Down-Regulation MAP1LC3B (gene MAP1LC3B, 20 ug/mL, vs. water-treated control): 1.5 Fold
Fold Up- or Down-Regulation MAPK14 (gene MAPK14, 20 ug/mL, vs. water-treated control): −1.1 Fold
Fold Up- or Down-Regulation MGAT1 (gene MGAT1, 20 ug/mL, vs. water-treated control): −1.7 Fold
Fold Up- or Down-Regulation MGAT5 (gene MGAT5, 20 ug/mL, vs. water-treated control): 1.2 Fold
Fold Up- or Down-Regulation MOGS (gene MOGS, 20 ug/mL, vs. water-treated control): −1.3 Fold
Fold Up- or Down-Regulation N4BP1 (gene N4BP1, 20 ug/mL, vs. water-treated control): 1.3 Fold
Fold Up- or Down-Regulation NFKBIA (gene NFKBIA, 20 ug/mL, vs. water-treated control): 1.3 Fold
Fold Up- or Down-Regulation PELI1 (gene PELI1, 20 ug/mL, vs. water-treated control): 1.4 Fold
Fold Up- or Down-Regulation PLAUR (gene PLAUR, 20 ug/mL, vs. water-treated control): 9.7 Fold
Fold Up- or Down-Regulation PPP1R15A (gene PPP1R15A, 20 ug/mL, vs. water-treated control): 2.5 Fold
Fold Up- or Down-Regulation PTGFRN (gene PTGFRN, 20 ug/mL, vs. water-treated control): −2.6 Fold
Fold Up- or Down-Regulation PTGS2 (gene PTGS2, 20 ug/mL, vs. water-treated control): 2.4 Fold
Fold Up- or Down-Regulation PTX3 (gene PTX3, 20 ug/mL, vs. water-treated control): 1.8 Fold
Fold Up- or Down-Regulation REL (gene REL, 20 ug/mL, vs. water-treated control): −1.1 Fold
Fold Up- or Down-Regulation RSAD2 (gene RSAD2, 20 ug/mL, vs. water-treated control): 1.2 Fold
Fold Up- or Down-Regulation SAMD9L (gene SAMD9L, 20 ug/mL, vs. water-treated control): 1.5 Fold
Fold Up- or Down-Regulation SOD2 (gene SOD2, 20 ug/mL, vs. water-treated control): −1.4 Fold
Fold Up- or Down-Regulation SPRR2B (gene SPRR2B, 20 ug/mL, vs. water-treated control): 6.5 Fold
Fold Up- or Down-Regulation TGFB1 (gene TGFB1, 20 ug/mL, vs. water-treated control): −1.2 Fold
Fold Up- or Down-Regulation TNF (gene TNF, 20 ug/mL, vs. water-treated control): 1.2 Fold
Fold Up- or Down-Regulation TNFAIP3 (gene TNFAIP3, 20 ug/mL, vs. water-treated control): 2.6 Fold
Fold Up- or Down-Regulation UBE2S (gene UBE2S, 20 ug/mL, vs. water-treated control): −1.1 Fold
Fold Up- or Down-Regulation UBE3B (gene UBE3B, 20 ug/mL, vs. water-treated control): 1.4 Fold
Fold Up- or Down-Regulation UBE4B (gene UBE4B, 20 ug/mL, vs. water-treated control): −1.4 Fold
Fold Up- or Down-Regulation UBE20 (gene UBE20, 20 ug/mL, vs. water-treated control): 2.5 Fold
Fold Up- or Down-Regulation VCP (gene VCP, 20 ug/mL, vs. water-treated control): 1.2 Fold
Fold Up- or Down-Regulation VEGFA (gene VEGFA, 20 ug/mL, vs. water-treated control): 2.5 Fold
fold value changes of significantly (p<0.05) upregulated or downregulated genes (genes ARRDC3, BAMBI, CXCL10, DEFB1, EPGN, FOS, HBEGF, IFI44L, MAFF, PLAUR, PPP1R15A, PTGS2, SPRR2B, TNFAIP3, UBE20, VEGFA, 20 ug/mL): ≥ 2.0 ×
